Reference: US20250128203A1, “MODIFIED REDOX-ACTIVE SORBENTS FOR ELECTROCHEMICAL CARBON DIOXIDE SEPARATION” (The Johns Hopkins University, priority 2023, published 2025)
Values after ≈ are worked out from the molar mass of the structure shown.

Experiments:
[1] = Cyclic voltammetry of isoindigos in DMF (half-wave redox potentials under N2 or CO2); type: physicochemical; settings: for E1/2 in N2 (first): first half-wave potential vs. Fc^+/Fc; for E1/2 in N2 (first) / E1/2 in N2 (second) / E1/2 in CO2 (first or single): 2.5 mM in DMF; for E1/2 in N2 (first) / E1/2 in N2 (second): 0.1 M NBu4PF6, N2, 298 K; for E1/2 in N2 (second): second half-wave potential vs. Fc^+/Fc; for E1/2 in CO2 (first or single): 0.1 M NBu4PF6, CO2, 298 K
Procedure: (§1) Electrochemical measurements were conducted using a BioLogic VSP potentiostat (BioLogic Science Instruments). For the cyclic voltammetry measurements, glassy carbon (Ø=3 mm) was used as the working electrode, platinum wire was used as the counter electrode, silver wire was used as the pseudo-reference electrode and ferrocene was used as the internal reference. In a standard cyclic voltammetry measurement, the molecule of interest (2.5 mM) was dissolved in anhydrous DMF with 100 mM NBu4PF6 as the supporting salt. Typical cyclic voltammograms were collected at a scan rate of […]. To study the effects of ionic species on the redox behaviour of the sorbent molecules, 100 mM LiClO4, NaClO4, KClO4, NBu4ClO4, sodium triflate (NaOTf), or sodium bis(trifluoromethanesulfonyl)imide (NaTFSI) was used as the supporting electrolyte salt.

[2] = CO2 binding constant (KCO2) calculated from the shift of the second reduction peak in CV; settings: for K[CO2] / logK[CO2]: DMF; for ΔEpeak(2): difference between the second reduction peak potentials (IId·−/IId2−) in CO2 and N2
Procedure: as §1
The CO2 binding constant (KCO2) was calculated by Eq 1: […]

[3] = UV-vis absorption, optical band gap; type: physicochemical; settings: UV-vis absorption (Kubelka-Munk spectra)
Procedure: UV-vis absorption spectra were recorded on a Thermo Scientific Genesys 10S UV-vis spectrophotometer.

Solubility in DMF = type: physicochemical
mammalian cells = assay: Cytotoxicity test and cell morphology, different mammalian cells; type: cell-based; parameters: dose or concentration left out as unconfirmed
Procedure: (§2) NIH3T3/GFP fibroblast cell line was kindly provided by Dr. Yun Chen at Johns Hopkins University and cultured in Dulbecco's Modified Eagle's Medium (DMEM; Gibco) supplemented with 10% fetal bovine serum (FBS; Hyclone) and 1% penicillin/streptomycin (Pen/Strep; Gibco). U2OS.EGFP cells were kindly provided by Dr. J Keith Joung at Massachusetts General Hospital and cultured in DMEM supplemented with 10% FBS, 2 mM GlutaMAX (Gibco), and 1% Pen/Strep. MCF10A epithelial cell line was kindly provided by Dr. Konstantinos Konstantopoulos at Johns Hopkins University and cultured in DMEM/F-12 (1:1) supplemented with 5% New Zealand horse serum (Gibco), 20 ng mL^−1 EGF (PeproTech), […] hydrocortisone (Sigma Aldrich), 100 ng mL^−1 cholera toxin (Sigma Aldrich), […] insulin (Gibco), and 1% Pen/Strep. All cells were cultured in a humidified incubator at 5% CO2 and 37° C.
(§3) Cell cytotoxicity was examined by alamarBlue HS Cell Viability Reagent (Invitrogen) according to manufacturer's protocol. Rampersad, 2012; Kumar et al., 2018. […] Absorbance was measured at 570 nm by a SpectraMax microplate reader, with 600 nm as a reference wavelength. The cell viability was calculated by relative absorbance to control groups. […] Cell morphology was monitored throughout the assay and images were acquired with an EVOS cell imaging system (Thermo Fisher).

[4] = Flow-based EMCC prototype, cyclic CO2 capture/release
Procedure: In a typical experiment, the sorbent tank (20 mL scintillation vial with septum cap) was continuously bubbled with CO2 feed gas (balanced by N2) with the flow rate controlled by a mass flow controller (Alicat). For testing under simulated flue gas conditions, a gas mixture of 10% CO2+3% O2 balanced by N2 was used. An infrared-based CO2 sensor (SprintIR-W 100%) was connected at the gas exit to monitor the CO2 concentration continuously. The tank headspace was filled with plastic beads (McMaster-Carr) to limit the mixing time in the headspace. The Fc tank was kept air free. A two-channel peristaltic pump (Masterflex) circulated the sorbent and the Fc electrolyte to a commercial flow cell (Scribner) at a flow rate of 10 mL min^−1. The flow cell utilised graphite plates with 5 cm^2 interdigitated flow fields pressed against two pieces of carbon paper electrodes (Sigracet 28 AA) at each side of the graphite electrodes to distribute the liquid flow. A Nafion™ 115 membrane was sandwiched by two pieces of polypropylene and placed between the carbon paper electrodes. The cell was kept sealed by Kalrez fluoropolymer elastomer gaskets (0.02 inches thick). CO2 capture was conducted in a constant current mode while the release was carried out following a constant current/constant voltage protocol (that is, oxidizing the adduct at a constant current until a specific cut-off voltage followed by a constant voltage hold (the cut-off current for the constant voltage hold was 5% of the value used in the constant current oxidation). The cycling protocols of each experiment are provided in the corresponding figure captions.
For experiments using 6MCIId sorbent, we added 10 mM 6MCIId and 4 mM ferrocenium tetrafluoroboronate (FcBF4) into the CE tank to mitigate sorbent crossover and facilitate the reduction of the oxidised ferrocenium in the counter electrolyte, respectively. For less soluble 55DBIId and 66DBIId, the sorbent was dispersed in DMAc to form a slurry catholyte.

[5] = Chronoamperometry: reaction rate constant between isoindigo radical anion and CO2; settings: isoindigo 5 mM in DMF, 0.1 M NBu4PF6
From the text: In electrochemistry, the Cottrell equation describes the current response (i) when the potential is a step function in time (t):
where i is current, n is the number of electrons transferred per molecule, A is the area of the electrode, C*0 is the bulk concentration of the redox-active isoindigo molecule, D is the diffusion coefficient, and t is time. The expected current for a diffusion limited electrochemical process following an ECE (electron transfer, chemical reaction, electron transfer) mechanism at a plane electrode under diffusion-controlled conditions is:
where n1 and n2 are the number of electrons transferred in the first and second step, respectively, and kf is the forward reaction rate constant of the chemical reaction. Here, to calculate kf after the first electron transfer, n2 and n1 are set to 1. Eq 3 then becomes:
The integrated Cottrell equation relates total charge Q with time for chronoamperometry: […]
Then, the constant k can be calculated, here k is assumed constant:
To calculate kf, the constant k is calculated using Eq 5 using potentiostatic measurements. Plugging in Eq 6, and rearranging Eq 4 gives:
The data for determining kf is shown in FIGS. 22 to 25 using 5 mM sorbent molecules in 0.1 M NBu4PF6 DMF electrolyte. The value k was determined using data under N2; kf was obtained under 1 bar 20% CO2 (0.0396 M CO2 in solution).

[6] = test system: NIH3T3/GFP mouse fibroblasts; assay: alamarBlue cytotoxicity assay; type: cell-based; settings: concentrations up to 100 µg mL^−1, 48 h
Procedure: as §2, §3

[7] = test system: U2OS.EGFP human osteosarcoma cells; assay: alamarBlue cytotoxicity assay; type: cell-based; settings: concentrations up to 100 µg mL^−1, 48 h
Procedure: as §2, §3

[8] = test system: MCF10A human breast epithelial cells; assay: alamarBlue cytotoxicity assay; type: cell-based; parameters: unit not given here; settings: 48 h cell culture
Procedure: as §2, §3

E1/2 in N2 (second) [1] [V]	E1/2 in CO2 (first or single) ([1]; vs. Fc^+/Fc) [V]	K[CO2] ([2]; 298 K) [M⁻¹]	logK[CO2] ([2]; 298 K)	ΔEpeak(2) [2] [V]	Optical band gap [3] [eV]	Compound	E1/2 in N2 (first) [1]	Solubility in DMF (Solubility in DMF) [mM]	other results
−1.55	−1.11	5.41e+08	8.73	0.475	2.03	COC(=O)C(CO)NC(=O)c1ccc2c(c1)NC(=O)/C2=C1/C(=O)Nc2cc(Br)ccc21 (centres unmarked) [6B6AIIdSer, Methyl 6-bromoisoindigo-6′-carbonylserinate]	−1.11, V	568 (≈ 276 mg/mL)	Cycling stability ([4]; more than 40 cycles and approximately 200 hours of operation): negligible voltage decay
−1.67	−1.12	38800	9.59	0.525	2.06	O=C1Nc2cc(Br)ccc2/C1=C1\C(=O)Nc2cc(Br)ccc21 [66DBIId, 6,6′-Dibromoisoindigo]	–	–	E1/2 (IId/IId·−) in N2 ([1]; Table 1, first electron transfer, N2, DMF): −1.14 V vs. Fc^+/Fc; Experimental 1st half-wave potential in N2 ([1]; Table 5, vs. Fc^+/Fc): −1.14 V; logK[CO2] ([2]; Table 1): 9.59; kbimolecular ([5]; first CO2 binding): 18.64 M⁻¹ s⁻¹; kf (20% CO2) ([5]; forward rate constant, 20% CO2): 0.738 s⁻¹; Sorbent recovered from the sorbent electrolyte after cycling ([4]; after 11 capture/release cycles over 50+ hours): 87%; Sorbent isomerized into cis-isomer after cycling ([4]; after 11 capture/release cycles over 50+ hours, 1H NMR): approximately 24%
–	–	–	–	–	–	Methyl isoindigo-6-carbonylserinate [6AIIdSer]	–	–	Toxicity [6]: does not display clear toxicity; Toxicity [7]: does not display clear toxicity; LC50 (lethal concentration that causes 50% cell death) [8]: 89.4

Compound	E1/2 in N2 (second) [1] [V]	E1/2 in CO2 (first or single) ([1]; vs. Fc^+/Fc) [V]	K[CO2] ([2]; 298 K) [M⁻¹]	logK[CO2] ([2]; 298 K)	ΔEpeak(2) [2] [V]	Optical band gap [3] [eV]	E1/2 in N2 (first) [1]	Solubility in DMF (Solubility in DMF) [mM]	other results
COC(=O)C(CO)NC(=O)c1ccc2c(c1)NC(=O)/C2=C1/C(=O)Nc2ccccc21 (centres unmarked) [6AIIdSer, Methyl isoindigo-6-carbonylserinate]	−1.60	−1.08	2.57e+08	8.41	0.46	2.04	−1.18, V	830 (≈ 338 mg/mL)	Biocompatibility compared with unmodified counterpart (mammalian cells; 0.78 to 100, 48 h): much better biocompatibility; Cell condition in optical microscopic images, compared with IId (mammalian cells; 50, 48 h culture): cells remained much healthier
